This is an account of results in patent US20140155384A1, “COMPOUNDS AND METHODS OF TREATING DIABETES” (Medivation Technologies, Inc., priority 2011, published 2014).

Assay [1] has as its target T1, human recombinant adrenergic α2B receptor (Homo sapiens, UniProt P18089).
T1 construct: expressed in transfected cells; host or cells: CHO-K1
T1 sequence (P18089 1-450): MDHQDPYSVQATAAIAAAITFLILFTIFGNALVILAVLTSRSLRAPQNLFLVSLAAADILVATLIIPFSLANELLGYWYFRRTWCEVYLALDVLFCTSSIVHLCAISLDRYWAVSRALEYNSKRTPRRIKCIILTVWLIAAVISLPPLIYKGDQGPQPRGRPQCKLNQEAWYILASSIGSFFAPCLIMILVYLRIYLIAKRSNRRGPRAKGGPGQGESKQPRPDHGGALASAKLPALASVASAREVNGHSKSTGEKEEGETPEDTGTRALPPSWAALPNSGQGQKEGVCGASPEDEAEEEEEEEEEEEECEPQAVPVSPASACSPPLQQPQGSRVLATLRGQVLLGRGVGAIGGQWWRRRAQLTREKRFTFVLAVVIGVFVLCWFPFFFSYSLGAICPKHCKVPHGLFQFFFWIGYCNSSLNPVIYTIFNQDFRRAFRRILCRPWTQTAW
Briefly: Radioligand binding, adrenergic α2B receptor ([3H]Rauwolscine). The following applies: 0.1 μM compound, CHO-K1 cells, read-out: Percentage inhibition of ligand binding, Adrenergic α2B. As to the method:
To evaluate in radioligand binding assays the activity of compounds, human recombinant adrenergic α2B receptor expressed in Chinese hamster ovary (CHO) K1 cells (Uhlen, S. et al, Eur. J. Pharmacol. 343(1):93, 1998) in a modified Tris-HCl buffer (50 mM Tris-HCl, pH 7.4, 12.5 mM MgCl2, 1 mM EDTA, 0.2% BSA) was used. Compounds were incubated with 2.5 nM [^3H]Rauwolscine for 60 min at 25° C. Non-specific binding was estimated in the presence of 10 μM Prazosin. Receptor proteins were filtered and washed, the filters were then counted to determine [^3H]Rauwolscine specifically bound. Compounds were screened at 1 μM or lower, using 1% DMSO as vehicle. Compounds were tested in this biochemical assay and percent inhibition of specific binding was determined. Biochemical assay results are presented as the percent inhibition of specific binding in Table 2.

Assay [2] has as its target T2, human recombinant adrenergic α1D receptor (Homo sapiens, UniProt P25100).
T2 construct: expressed in transfected cells; host or cells: HEK-293
T2 sequence (P25100 1-572): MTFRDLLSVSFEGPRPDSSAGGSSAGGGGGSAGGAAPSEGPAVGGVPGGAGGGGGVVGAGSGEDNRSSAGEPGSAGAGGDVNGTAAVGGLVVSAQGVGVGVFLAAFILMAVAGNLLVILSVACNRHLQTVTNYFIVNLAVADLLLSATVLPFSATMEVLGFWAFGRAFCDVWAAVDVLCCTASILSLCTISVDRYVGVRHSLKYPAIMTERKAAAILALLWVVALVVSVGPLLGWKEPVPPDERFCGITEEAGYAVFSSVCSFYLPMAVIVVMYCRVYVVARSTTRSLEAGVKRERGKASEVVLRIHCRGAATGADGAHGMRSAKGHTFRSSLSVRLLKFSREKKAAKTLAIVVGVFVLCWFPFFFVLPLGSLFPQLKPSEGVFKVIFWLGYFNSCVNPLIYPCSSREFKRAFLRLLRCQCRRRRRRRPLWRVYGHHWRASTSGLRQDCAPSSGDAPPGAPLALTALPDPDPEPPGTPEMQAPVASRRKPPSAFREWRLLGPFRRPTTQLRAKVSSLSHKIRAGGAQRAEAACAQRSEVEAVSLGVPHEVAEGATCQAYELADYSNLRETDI
Briefly: Radioligand binding, adrenergic α1D receptor ([3H]Prazosin). The following applies: 0.1 μM compound; HEK-293 cells; 0.6 nM [3H]Prazosin; read-out: Percentage inhibition of ligand binding, Adrenergic α1D. As to the method: Compounds were incubated with 0.6 nM [3H]Prazosin for 60 min at 25° C. Non-specific binding was estimated in the presence of 10 μM phentolamine. Receptor proteins were filtered and washed, the filters were then counted to determine [3H]Prazosin specifically bound. Compounds were screened at 1 μM or lower, using 1% DMSO as vehicle. Biochemical assay results are presented as the percent inhibition of specific binding in Table 2.

Assay [3] concerns the target T3, human recombinant adrenergic α2A receptor (Homo sapiens, UniProt P08913).
T3 construct: expressed in transfected cells; host or cells: insect Sf9 cells
T3 sequence (P08913 1-465): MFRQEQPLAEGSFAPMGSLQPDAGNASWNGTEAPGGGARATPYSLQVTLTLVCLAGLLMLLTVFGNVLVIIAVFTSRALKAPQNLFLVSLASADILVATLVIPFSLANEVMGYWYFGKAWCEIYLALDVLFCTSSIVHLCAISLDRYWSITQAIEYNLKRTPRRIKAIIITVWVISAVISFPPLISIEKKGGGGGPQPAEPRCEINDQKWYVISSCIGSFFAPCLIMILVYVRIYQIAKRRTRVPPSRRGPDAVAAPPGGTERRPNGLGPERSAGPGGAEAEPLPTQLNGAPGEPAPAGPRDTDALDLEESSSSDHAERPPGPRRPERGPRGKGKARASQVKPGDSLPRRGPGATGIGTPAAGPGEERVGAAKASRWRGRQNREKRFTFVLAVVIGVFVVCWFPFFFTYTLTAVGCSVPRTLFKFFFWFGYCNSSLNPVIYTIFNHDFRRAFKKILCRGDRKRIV
The assay can be described thus: Radioligand binding, adrenergic α2A receptor ([3H]MK-912). The following applies: 0.1 μM compound; Sf9 cells; 1 nM [3H]MK-912; read-out: Percentage inhibition of ligand binding, Adrenergic α2A. As to the method:
To evaluate in radioligand binding assays the activity of compounds, human recombinant adrenergic α2A receptor expressed in insect Sf9 cells (Uhlen, S. et al, J. Pharmacol. Exp. Ther. 271:1558, 1994) in a modified Tris-HCl buffer (50 mM Tris-HCl, pH 7.4, 12.5 mM MgCl2, 2 mM EDTA) was used. Compounds were incubated with 1 nM [^3H]MK-912 for 60 min at 25° C. MK912 is (2S-trans)-1,3,4,5′,6,6′,7,12b-octahydro-1′,3′-dimethyl-spiro[2H-benzofuro[2,3-a]quinolizine-2,4′(1′H)-pyrimidin]-2′(3′H)-one hydrochloride Non-specific binding was estimated in the presence of 10 μM WB-4101 (2-(2,6-Dimethoxyphenoxyethyl)aminoethyl-1,4-benzodioxane hydrochloride). Receptor proteins were filtered and washed, the filters were then counted to determine [^3H]MK-912 specifically bound. Compounds were screened at 1 μM or lower, using 1% DMSO as vehicle. Compounds were tested in this biochemical assay and percent inhibition of specific binding was determined. Biochemical assay results are presented as the percent inhibition of specific binding in Table 2.

Assay [4] concerns the target T4, rat adrenergic α1B receptor (Rattus norvegicus, UniProt P15823).
T4 construct: rat adrenergic α1B receptor obtained from Wistar Rat liver; from tissue; host or cells: Wistar rat liver
T4 sequence (P15823 1-515): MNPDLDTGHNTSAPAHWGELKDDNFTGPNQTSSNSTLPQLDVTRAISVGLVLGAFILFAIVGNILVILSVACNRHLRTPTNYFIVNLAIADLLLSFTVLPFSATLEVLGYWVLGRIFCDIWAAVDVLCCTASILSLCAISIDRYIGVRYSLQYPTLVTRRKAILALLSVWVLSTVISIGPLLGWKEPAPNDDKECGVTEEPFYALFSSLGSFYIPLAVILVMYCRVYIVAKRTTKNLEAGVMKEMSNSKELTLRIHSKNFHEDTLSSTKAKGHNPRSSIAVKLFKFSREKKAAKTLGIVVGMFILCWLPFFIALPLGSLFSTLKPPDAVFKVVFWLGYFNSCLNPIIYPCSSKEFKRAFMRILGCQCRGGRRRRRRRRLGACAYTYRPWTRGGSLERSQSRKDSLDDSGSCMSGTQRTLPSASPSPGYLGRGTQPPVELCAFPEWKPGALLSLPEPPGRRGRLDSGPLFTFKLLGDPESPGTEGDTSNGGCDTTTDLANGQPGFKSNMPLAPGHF
Briefly: Radioligand binding, adrenergic α1B receptor ([3H]Prazosin). The following applies: 0.1 μM compound, Wistar rat liver, read-out: Percentage inhibition of ligand binding, Adrenergic α1B. As to the method: To evaluate in radioligand binding assays the activity of compounds, rat adrenergic α1B receptor obtained from Wistar Rat liver (Garcia-S' ainz, J. et al, Biochem. Biophys. Res. Commun. 186:760, 1992; Michel, A. et al, Br. J. Pharmacol. 98:883, 1989) in a modified Tris-HCl buffer (50 mM Tris-HCl buffer, pH 7.4, 0.5 mM EDTA) was used. Compounds were incubated with 0.25 nM [^3H]Prazosin for 60 min at […]. Non-specific binding was estimated in the presence of 10 μM phentolamine. Receptor proteins were filtered and washed, the filters were then counted to determine [^3H]Prazosin specifically bound. Compounds were screened at 1 μM or lower, using 1% DMSO as vehicle. Compounds were tested in this biochemical assay and percent inhibition of specific binding was determined. Biochemical assay results are presented as the percent inhibition of specific binding in Table 2.

As for `Cc1ccc2c(c1)c1c(n2-c2cscc2-c2cc3ccccc3s2)CCN(C)C1` [Compound No. 151], the inhibition at 0.1 µM in assay [1] was 99%; in assay [2], 67%; in assay [3], 96%; in assay [4], 59%.
With `Cc1ccc2c(c1)c1c(n2-c2cscc2-c2cnc(N(C)C)nc2)CCN(C)C1` [Compound 40], the inhibition at 0.1 µM in assay [1] was 89%; in assay [2], 79%; in assay [3], 91%; in assay [4], 43%.
Turning to `Cc1csc(-c2ccccc2-n2c3c(c4cc(C)ccc42)CN(C)CC3)c1` [Compound 36], the inhibition at 0.1 µM in assay [1] is 79%; in assay [2], 26%; in assay [3], 90%; in assay [4], 13%.
In the case of `Cc1ccc2c(c1)c1c(n2-c2ccccc2-c2ccc(C)s2)CCN(C)C1` [Compound No. 81, 2,8-dimethyl-5-(2-(5-methylthiophen-2-yl)phenyl)-2,3,4,5-tetrahydro-1H-pyrido[4,3-b]indole], the inhibition at 0.1 µM in assay [1] is 95%; in assay [2] it was 36%; in assay [3] it was 88%; in assay [4], 37%.
Consider `Cc1ccc2c(c1)c1c(n2-c2cccc(-c3ccc4c(ccn4C)c3)c2)CCN(C)C1` [Compound 53, 2,8-dimethyl-5-(3-(1-methyl-1H-indol-5-yl)phenyl)-2,3,4,5-tetrahydro-1H-pyrido[4,3-b]indole], for which the inhibition at 0.1 µM in assay [1] was 15%; in assay [2], 0%; in assay [3] it was 24%; in assay [4], 8%.
As to `Cc1ccc2c(c1)c1c(n2-c2cscc2-c2sccc2C)CCN(C)C1` [Compound 39], the inhibition at 0.1 µM in assay [1] amounted to 70%; in assay [2], 62%; in assay [3], 98%; in assay [4], 67%.
On to `Cc1ccc2c(c1)c1c(n2-c2cccc(-c3cnn(C)c3)c2)CCN(C)C1` [Compound 46, 2,8-dimethyl-5-(3-(1-methyl-1H-pyrazol-4-yl)phenyl)-2,3,4,5-tetrahydro-1H-pyrido[4,3-b]indole], for which the inhibition at 0.1 µM was 21% in assay [1], 8% in assay [2], 48% in assay [3] and -7% in assay [4].
As for `Cc1ccc2c(c1)c1c(n2-c2ccc3c(c2)CCN(C=O)C3)CCN(C)C1` [Compound No. 77, 6-(2,8-dimethyl-1,2,3,4-tetrahydro-pyrido[4,3-b]indol-5-yl)-3,4-dihydro-1H-isoquinoline-2-carbaldehyde], the inhibition at 0.1 µM turned out to be 45% in assay [1], 6% in assay [2], 15% in assay [3] and 15% in assay [4].
As for `Cc1ccc2c(c1)c1c(n2-c2ccccc2-c2cncc3ccccc23)CCN(C)C1` [Compound No. 87, 5-(2-(isoquinolin-4-yl)phenyl)-2,8-dimethyl-2,3,4,5-tetrahydro-1H-pyrido[4,3-b]indole], the inhibition at 0.1 µM in assay [1] was 18%; in assay [2], 16%; in assay [3], 30%; in assay [4], 13%.
On to `Cc1ccc2c(c1)c1c(n2-c2cccc(-c3cnc(N(C)C)nc3)c2)CCN(C)C1` [Compound 42, 5-(3-(2,8-dimethyl-3,4-dihydro-1H-pyrido[4,3-b]indol-5(2H)-yl)phenyl)-N,N-dimethylpyrimidin-2-amine], for which the inhibition at 0.1 µM in assay [1] is 7%; in assay [2], -3%; in assay [3] it was 17%; in assay [4] it was 10%.
As for `Cc1ccc2c(c1)c1c(n2-c2ccc(-c3cncc4ccccc34)cn2)CCN(C)C1` [Compound No. 135, 5-(5-(isoquinolin-4-yl)pyridin-2-yl)-2,8-dimethyl-2,3,4,5-tetrahydro-1H-pyrido[4,3-b]indole], the inhibition at 0.1 µM in assay [1] stood at 99%; in assay [2] it was 64%; in assay [3] it was 56%; in assay [4], 59%.
